From ChEMBL document CHEMBL1129097, “1-benzyl-3-thioaryl-2-carboxyindoles as potent non-peptide endothelin antagonists” (Bioorg Med Chem Lett, 1996)

Key:
[1] = target: T1, Endothelin receptor type B (Homo sapiens, UniProt P24530); test: Affinity for human endothelin B receptor expressed in CHO-K1 cells.; assay type: cell-based
T1 sequence (P24530 whole entry): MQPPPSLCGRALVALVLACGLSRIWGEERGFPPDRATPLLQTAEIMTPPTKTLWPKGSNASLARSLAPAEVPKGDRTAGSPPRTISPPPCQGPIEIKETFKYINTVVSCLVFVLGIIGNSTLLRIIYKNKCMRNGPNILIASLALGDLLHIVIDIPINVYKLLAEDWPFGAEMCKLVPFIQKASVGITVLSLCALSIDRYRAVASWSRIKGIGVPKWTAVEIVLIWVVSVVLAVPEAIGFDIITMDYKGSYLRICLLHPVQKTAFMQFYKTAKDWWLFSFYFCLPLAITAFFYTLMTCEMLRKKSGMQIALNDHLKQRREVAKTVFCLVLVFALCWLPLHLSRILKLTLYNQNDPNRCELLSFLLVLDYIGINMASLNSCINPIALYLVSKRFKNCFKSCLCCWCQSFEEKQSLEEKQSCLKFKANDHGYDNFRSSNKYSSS

[2] = target: T2, Endothelin-1 receptor (Homo sapiens, UniProt P25101); test: Affinity for human endothelin A receptor expressed in Ltk cells.; assay type: cell-based
T2 sequence (P25101 whole entry): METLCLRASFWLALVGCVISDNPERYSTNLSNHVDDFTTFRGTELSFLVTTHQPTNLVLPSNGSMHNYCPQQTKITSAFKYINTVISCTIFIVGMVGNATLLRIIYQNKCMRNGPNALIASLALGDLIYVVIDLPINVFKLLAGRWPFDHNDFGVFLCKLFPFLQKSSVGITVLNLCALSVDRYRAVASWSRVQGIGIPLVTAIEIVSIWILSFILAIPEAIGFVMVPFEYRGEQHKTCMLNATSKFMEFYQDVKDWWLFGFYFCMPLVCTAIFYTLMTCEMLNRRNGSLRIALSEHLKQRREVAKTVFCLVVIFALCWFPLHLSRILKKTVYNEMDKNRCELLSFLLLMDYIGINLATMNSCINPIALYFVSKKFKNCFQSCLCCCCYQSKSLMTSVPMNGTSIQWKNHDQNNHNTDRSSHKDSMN

[3] = target: T3, Endothelin receptor, ET-A/ET-B (Homo sapiens, UniProt P24530+P25101); test: In vitro inhibition of ET-1 stimulated vasoconstriction in rabbit femoral artery.; assay type: functional, tissue-based, Oryctolagus cuniculus; conditions: target entry is the homologue from another species
T3 sequence (P24530 whole entry): T1 sequence (P24530 whole entry)
T3 sequence (P25101 whole entry): T2 sequence (P25101 whole entry)

[4] = target: T1, Endothelin receptor type B; test: Inhibition of sarafotoxin-6c stimulated vasoconstriction in rabbit pulmonary artery.; assay type: functional, Oryctolagus cuniculus; conditions: target entry is the homologue from another species; read-out: pA2 (converted)

SMILES | IC50 [1] | IC50 [2] | pA2 [3] | Kb [4]
COc1cccc(Sc2c(C(=O)O)n(Cc3ccc4c(c3)OCO4)c3cc4c(cc23)OCO4)c1 | 760 nM |  |  | 
COc1cccc(Sc2c(C(=O)O)n(Cc3cc(OC)c4c(c3)OCO4)c3cc4c(cc23)OCO4)c1 | 29000 nM |  |  | 
O=C(O)c1c(Sc2ccc3c(c2)OCO3)c2cc3c(cc2n1Cc1ccc2c(c1)OCO2)OCO3 | 420 nM | 100 nM |  | 
COc1cccc(Sc2c(C(=O)O)n(Cc3ccc4c(c3)OCO4)c3cc(OCc4ccccc4)c(OC)cc23)c1 | 1600 nM | 20000 nM |  | 
COc1ccc(Sc2c(C(=O)O)n(Cc3ccc4c(c3)OCO4)c3cc4c(cc23)OCO4)cc1OC |  | 41 nM | 6.3 | 631 nM
COc1cc2c(Sc3ccc4c(c3)OCO4)c(C(=O)O)n(Cc3ccc4c(c3)OCO4)c2cc1OCc1ccccc1 | 490 nM | 620 nM |  | 
COc1cc2c(Sc3cc(OC)c(OC)c(OC)c3)c(C(=O)O)n(Cc3ccc4c(c3)OCO4)c2cc1OCc1ccccc1 | > 2500 nM | > 2500 nM |  | 

Further lines, with some results ahead:

IC50 [1] | IC50 [2] | SMILES | pA2 [3] | Kb [4]
> 100000 nM | 8800 nM | CC(C)Oc1c(C(=O)O)sc2ccc(OCc3ccccc3)cc12 |  | 
> 25000 nM |  | COc1cccc(Sc2c(C(=O)O)sc3ccccc23)c1 |  | 
870 nM | 160 nM | COc1cccc(Sc2c(C(=O)O)n(Cc3ccccc3)c3cc(OC)c(OC)cc23)c1 |  | 
 | 86 nM | COc1cccc(Sc2c(C(=O)O)n(Cc3ccc4c(c3)OCO4)c3ccccc23)c1 |  | 
15000 nM |  | COc1cccc(Sc2c(C(=O)O)n(Cc3ccccc3)c3ccccc23)c1 |  | 
> 25000 nM |  | COc1cccc(Sc2c(C(=O)O)oc3ccccc23)c1 |  | 
